Measured values taken from PubChem BioAssay (NCI).
Several values for one entry are separate records, joined by “and”; a condition that tells them apart may be missing. Identical values can stand only once.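 Where inhibition never reached the appropriate level, the endpoint shown equals the highest concentration tested. Otherwise, values were interpolated linearly from a five-concentration, 48-hour dose response in 96-well plates. GI50 = concentration required for 50% inhibition of growth. TGI is the concentration that stops growth completely.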

Legend:
Assay in all cases: NCI tumour cell line growth inhibition, 48 h
[1] = tested on: TK-10 renal
[2] = tested on: NCI/ADR-RES ovarian
[3] = tested on: SF-539 CNS
[4] = tested on: SW-620 colon
[5] = tested on: SR leukemia
[6] = tested on: OVCAR-4 ovarian
[7] = tested on: OVCAR-8 ovarian
[8] = tested on: NCI-H23 lung
[9] = tested on: PC-3 prostate
[10] = tested on: SN12C renal

| Structure (SMILES) | GI50 [1] [µM] | TGI [1] [µM] | GI50 [2] [µM] | TGI [2] [µM] | GI50 [3] [µM] | TGI [3] | GI50 [4] [µM] | TGI [4] [µM] | GI50 [5] [µM] | TGI [5] | GI50 [6] [µM] | TGI [6] [µM] | GI50 [7] [µM] | TGI [7] [µM] | GI50 [8] [µM] | TGI [8] | GI50 [9] [µM] | TGI [9] [µM] | GI50 [10] [µM] | TGI [10] |
| --- | --- | --- | --- | --- | --- | --- | --- | --- | --- | --- | --- | --- | --- | --- | --- | --- | --- | --- | --- | --- |
| O=C1/C(=C/c2ccc([N+](=O)[O-])s2)Oc2ccc(Br)cc21 | 0.389 | 4.66 | 0.497 | 4.91 | 0.212 | 0.517 µM | 0.242 | 0.664 | 0.152 | 0.914 µM | 0.352 | 1.43 | 0.37 | > 100 | 0.549 | 2.22 µM | 0.251 | 0.774 | 0.567 | 2.93 µM |
| CCOC(=O)c1c(C)n(Cc2ccc(Cl)cc2Cl)c2c1cc(O)c1[nH]c(Cc3ccccc3)nc12 | 7.07 | 29 | 4.79 | 17.3 | 7.62 | 19.9 µM | 2.21 | 6.02 | 0.612 | 2.22 µM | 4.15 | 16.7 | 3.19 | 11 | 3.6 | 10.6 µM | 2.11 | 5.62 | 4 | 12.1 µM |
| O=C1/C(=C/c2ccccc2)CN(C(=O)/C=C/c2ccccc2)C/C1=C\c1ccccc1 |  | 65.3 |  |  |  | 24.8 µM |  | 5.28 |  | 4.64 µM |  | 24.7 |  | 9.78 |  | 32.6 µM |  | 4.33 |  | 16 µM |
| CC(C)(C)c1ccc(OCCCCCCCN2CCNCC2)cc1 | 1.6 | 3.06 | 2.46 | 6.94 |  |  | 1.67 | 3.26 |  |  | 1.6 | 3.22 |  |  | 4.28 | 17.6 µM | 1.66 | 3.85 | 2.73 | 7.62 µM |
| COc1cccc(C2=C(c3cn(C)c4c(C)cccc34)C(=O)NC2=O)c1 | > 25 | > 25 | > 21.4 | > 25 | > 25 | > 25 µM | > 25 | > 25 | > 19.6 | > 25 µM | > 14.3 | > 25 | > 25 | > 25 | > 25 | > 25 µM | > 18.3 | > 25 | > 25 | > 25 µM |
| N#C/C(=C\c1ccccn1)c1nc2ccccc2o1 | 50.3 | > 100 | 33.4 | > 100 | 23.8 | 66.5 µM | 17.5 | 37.1 | 20 | 78.4 µM | 17.3 | 34.2 | 36.2 | > 100 | 33.9 | > 100 µM | 17.6 | 50.5 | 32.5 | > 100 µM |
| Cc1cc(N)c2cc(NC(=O)/C=C\c3ccccc3Cl)ccc2n1 | 2.11 | 3.69 | > 24.2 | > 100 | 1.69 | 3.07 µM | 0.214 | 0.478 |  |  | 0.365 | 0.971 | 1.61 | 3.12 | 1.73 | 3.32 µM | 1.46 | 2.84 | 1.36 | 2.69 µM |
| O=C1c2ccccc2-n2c1nc1ccc([N+](=O)[O-])cc1c2=O |  | > 100 |  | > 100 |  | > 100 µM |  | > 100 |  | > 100 µM |  |  |  | 46.6 |  | > 100 µM |  | > 100 |  | > 100 µM |
| CCc1n(Cc2ccc3ccccc3c2)cc[n+]1Cc1ccc2ccccc2c1 | 1.65 | 3.32 | 19.2 | 62.4 | 0.8 | 2.3 µM | 0.964 | 2.55 | 0.528 | 4.28 µM | 0.307 | 1.28 | 0.76 | 3.13 | 0.396 | 2.02 µM | 0.699 | 2.49 | 0.572 | 2.12 µM |
| CCOC(=O)c1nc2sc(Cl)cn2c1/C=N/N=C(N)N | 22.2 | 47.6 | 39 | > 83.4 | 42.7 | > 100 µM | 14.7 | 43.8 |  |  | 30.3 | > 100 | 26.9 | > 53.8 | 20.4 | > 69.8 µM | 24.4 | > 56.8 | 24 | 57.6 µM |
| O=C1CC[C@@H]2[C@H]3CCC(=O)c4c3c(c3cccc(O)c3c4O)O[C@@]23C(=O)c2cccc(O)c2C(O)=C13 | > 100 | > 100 | > 100 | > 100 | > 100 | > 100 µM | > 100 | > 100 | > 100 | > 100 µM |  |  | > 100 | > 100 | > 100 | > 100 µM | > 100 | > 100 | 61.4 | > 100 µM |
| O=c1oc2cc(O)ccc2cc1-c1nc2ccccc2o1 |  | > 100 |  | > 100 |  | > 100 µM |  | > 100 |  | > 100 µM |  | > 100 |  | > 100 |  | > 100 µM |  | > 100 |  | > 100 µM |
| Cc1nc2sc(C(=O)Nc3cccc4c3OCCO4)c(N)c2cc1C(C)O (stereo unspecified) | > 100 | > 100 | 3.28 | > 100 | 2.96 | 13.8 µM | 3.34 | > 100 | 1.18 | > 100 µM | > 100 | > 100 | 6.48 | > 100 | 6.67 | > 100 µM | 5 | > 100 | 5.65 | > 100 µM |
| C=CC(=O)N1CCN(c2nc(OC[C@@H]3CCCN3C)nc3c(F)c(-c4nc(N)cc(C)c4C(F)(F)F)c(Cl)cc23)[C@@H](C)C1 | 2.01 | 4.53 | 12.8 | 27.8 | 1.73 | 3.51 µM | 1.95 | 3.71 | 1.77 | 4.54 µM | 1.59 | 3 | 1.64 | 3.09 |  | 1.34 µM | 2.91 | 12 | 1.6 | 3.62 µM |
| CN(C)Cc1nsc(N(C)C)n1 |  | > 100 |  | > 100 |  | > 100 µM |  | > 100 |  |  |  | > 100 |  | > 100 |  | > 100 µM |  | > 100 |  | > 100 µM |
| CCOC(=O)c1ccc(N[C@@H]2c3cc4c(cc3C(c3cc(OC)c(O)c(OC)c3)[C@H]3C(=O)OCC32)OCO4)cc1 (stereo partly specified) | 5 | 11.3 |  | 6.41 | 0.34 | 0.951 µM and 1.97 µM | 0.536 | 28.4 | 0.0303 | 0.32 µM and 0.742 µM |  | 12.6 | 0.479 | 6.49 | 0.191 | 0.768 µM and 2.24 µM |  | 20.6 | 0.249 | 0.955 µM and 3.91 µM |
| CC(=O)OC1C(C)OC(Oc2c(-c3ccc(O)cc3)oc3cc(O)cc(O)c3c2=O)C(O)C1OC(C)=O (stereo unspecified) | 31.9 | > 90.8 | > 100 | > 100 | 29.1 | > 100 µM | 35.8 | > 100 | 25 | 65 µM | 35.9 | > 100 | 29 | > 84.9 | 26.4 | > 80.7 µM | 30.5 | > 100 | 27.3 | 97.5 µM |
| CN(COC(=O)C(C)(C)C)c1nc(N(C)COC(=O)C(C)(C)C)nc(N(C)COC(=O)C(C)(C)C)n1 |  | > 100 |  | > 100 |  | > 100 µM |  | 82.2 |  | > 100 µM |  | > 100 |  |  |  | > 100 µM |  | > 100 |  | > 100 µM |
| CCOC(=O)CCC(NC(=O)c1ccc(Oc2nc3cc(N)cc(N)c3nc2-c2ccccc2)cc1)C(=O)OCC (stereo unspecified) | > 100 | > 100 | 27.5 | > 100 | 34 | > 100 µM | 29.5 | > 100 |  |  | 35.6 | > 100 | 38.2 | > 100 | 15.5 | 30.4 µM | 73.5 | > 100 |  |  |
| Cc1ccc(-c2csc3ncnc(Nc4cccc(O)c4)c23)cc1 |  |  | 24.7 | 60.3 | 37.7 | > 100 µM | 42.4 | > 100 | 15.2 | 77.5 µM | 44.6 | > 100 | 32.3 | > 100 | 22.6 | 46.5 µM | 16.3 | 37.1 | 34.1 | > 100 µM |
| O=C(N/N=C/c1coc2ccc(Cl)cc2c1=O)c1cc(O)c(O)c(O)c1 |  |  | 17.8 | 50.2 | 23.6 | 62.7 µM | 25.8 | 97.4 |  |  | 98.4 | > 100 | 18.6 | > 100 | 16.2 | 48.1 µM | 33.2 | > 100 | 24.1 | 65.4 µM |
| C=CCC(NCc1ccccc1)c1cn(C(=O)OCC)c2ccccc12 (stereo unspecified) | 16.5 | 36.6 | 21.4 | 52.1 | 5.47 | 18.8 µM | 18.3 | 41.7 |  |  | 51.5 | > 100 | 24.1 | 61.1 | 17.7 | 43.6 µM | 22.9 | 96.4 | 25.7 | 60.9 µM |
| O=C1OC(=O)c2c1cc1cc3c(cc1c2-c1ccc2c(c1)OCO2)OCO3 |  | > 100 |  | > 100 |  | > 100 µM |  | > 100 |  |  |  | > 100 |  | > 100 |  | > 100 µM |  | > 100 |  | > 100 µM |
| C[C@H]1CCC/C=C/[C@@H]2C[C@H](O)C[C@H]2[C@H](O)C(O)C(O)C(=O)O1 (stereo partly specified) | 6.42 | > 100 | 1.62 |  | 0.677 | > 100 µM | 3.26 | > 100 | 1.28 | 3.66 µM |  |  | 1.16 | 5.11 | 2.23 | > 100 µM | 3.44 | > 29.8 | 2.66 | 7.63 µM |
| O=C1c2c[n+](Cc3ccccc3)ccc2-c2nc3ccccc3c3ccnc1c23 | 0.818 | 2.8 | 7.3 | 33.3 | 0.545 | 1.17 µM | 0.45 | 3.71 | 0.066 | 3.6 µM | 0.468 | 0.92 |  |  | 0.158 | 1.26 µM | 0.826 | 3.92 |  |  |
| Cc1nc2ccccc2c(/C=C/c2ccc(F)cc2)c1C(=O)/C=C/c1ccccc1 | 4.05 | > 100 | 2.61 | 7.48 | 1.81 | 3.57 µM | 2.9 | > 100 |  |  | 3.66 | > 100 | 2.62 | 7.75 | 1.99 | 5.43 µM | 2.53 | 8.81 | 2.25 | 6.07 µM |
| CC(C)OC(=O)NNc1c(Cl)cc(Cl)cc1Cl |  | > 100 |  | > 100 |  | > 100 µM |  | > 100 |  | > 100 µM |  |  |  | > 100 |  | > 100 µM |  | > 100 |  | > 100 µM |
| COc1cc(/C=C2\CC3C4CC=C5C[C@@H](N6CCCC6)CC[C@]5(C)C4CC[C@]3(C)[C@H]2OC(C)=O)ccc1OCCCn1ccnc1 (stereo partly specified) | 0.479 | 1.48 | 5.35 | 13.5 | 0.196 | 0.459 µM | 0.232 | 1.21 |  |  |  |  | 0.774 | 2.79 | 4 | 7.96 µM | 0.958 | 8.41 | 1.24 | 9.77 µM |
| O=C(NCCc1nccs1)c1cnc2c(S)cccc2c1 | 5.8 | 19.5 | 2.97 | > 100 | 4.17 | 42.7 µM | 3.62 | 28.7 | 0.677 | > 100 µM | 2.72 | 34 | 4.95 | 57.4 | 3.91 | > 100 µM | 4.39 | 26.6 |  |  |
